Values after ≈ are worked out from the molar mass of the structure shown.
Key:
Type in all cases: functional
Pseudomonas aeruginosa [1] = test: Antimicrobial activity against mutS::lox-deficient Pseudomonas aeruginosa PAOMSB biofilm harboring nfxB T77C mutant gene selected at 4 ug/ml of azithromycin after 6 passages by Etest method
Pseudomonas aeruginosa [2] = test: Antimicrobial activity against mutS::lox-deficient Pseudomonas aeruginosa PAOMSB biofilm harboring nfxB C116T mutant gene selected at 4 ug/ml of azithromycin after 5 passages by Etest method
Pseudomonas aeruginosa [3] = test: Antimicrobial activity against mucA::lox-deficient Pseudomonas aeruginosa PAOMAB biofilm harboring nfxB G125T mutant gene selected at 0.5 ug/ml of azithromycin after 1 passages by Etest method
Pseudomonas aeruginosa [4] = test: Antimicrobial activity against mucA::lox, mutS::lox-deficient Pseudomonas aeruginosa PAOMSAB biofilm harboring nfxB C25T mutant gene selected at 1 ug/ml of azithromycin after 2 passages by Etest method
Pseudomonas aeruginosa [5] = test: Antimicrobial activity against mucA::lox-deficient Pseudomonas aeruginosa PAOMA biofilm by Etest method
Pseudomonas aeruginosa [6] = test: Antimicrobial activity against Pseudomonas aeruginosa PAO1 A biofilm harboring duplication mutation at nucleotide 333 in nfxB gene selected at 0.5 ug/ml of azithromycin by Etest method
Pseudomonas aeruginosa [7] = test: Antimicrobial activity against mutS::lox,nfxB gene-deficient Pseudomonas aeruginosa PAOMSNB biofilm by Etest method
Pseudomonas aeruginosa [8] = test: Antimicrobial activity against mucA::lox, mutS::lox-deficient Pseudomonas aeruginosa PAOMSAA biofilm harboring nfxB T77C mutant gene selected at 4 ug/ml of azithromycin after 3 passages by Etest method
Pseudomonas aeruginosa [9] = test: Antimicrobial activity against mutS::lox-deficient Pseudomonas aeruginosa PAOMSB biofilm harboring deletion od C534 in nfxB mutant gene selected at 4 ug/ml of azithromycin after 2 passages by Etest method
Pseudomonas aeruginosa [10] = test: Antimicrobial activity against mucA::lox, mutS::lox-deficient Pseudomonas aeruginosa PAOMSAB biofilm harboring nfxB C89T mutant gene selected at 4 ug/ml of azithromycin after 6 passages by Etest method
Pseudomonas aeruginosa [11] = test: Antimicrobial activity against mucA::lox, mutS::lox-deficient Pseudomonas aeruginosa PAOMSAB biofilm harboring nfxB T544C mutant gene selected at 4 ug/ml of azithromycin after 1 passages by Etest method
Pseudomonas aeruginosa [12] = test: Antimicrobial activity against Pseudomonas aeruginosa PAO1 biofilm by Etest method
Pseudomonas aeruginosa [13] = test: Antimicrobial activity against mucA::lox, mutS::lox-deficient Pseudomonas aeruginosa PAOMSAB biofilm harboring nfxB T86C mutant gene selected at 4 ug/ml of azithromycin after 2 passages by Etest method
Pseudomonas aeruginosa [14] = test: Antimicrobial activity against mutS::lox-deficient Pseudomonas aeruginosa PAOMSA biofilm harboring nfxB C116T mutant gene selected at 1 ug/ml of azithromycin after 1 passages by Etest method
Pseudomonas aeruginosa [15] = test: Antimicrobial activity against mutS::lox-deficient Pseudomonas aeruginosa PAOMSA biofilm harboring nfxB G539A mutant gene selected at 4 ug/ml of azithromycin after 6 passages by Etest method
Pseudomonas aeruginosa [16] = test: Antimicrobial activity against mutS::lox-deficient Pseudomonas aeruginosa PAOMSA biofilm harboring nfxB G461A mutant gene selected at 4 ug/ml of azithromycin after 5 passages by Etest method
Pseudomonas aeruginosa [17] = test: Antimicrobial activity against mutS::lox,mexD::lox-deficient Pseudomonas aeruginosa PAOMSMxD biofilm by Etest method
Pseudomonas aeruginosa [18] = test: Antimicrobial activity against mutS::lox-deficient Pseudomonas aeruginosa PAOMS biofilm by Etest method
Pseudomonas aeruginosa [19] = test: Antimicrobial activity against mucA::lox, mutS::lox-deficient Pseudomonas aeruginosa PAOMSAA biofilm harboring nfxB C89T mutant gene selected at 4 ug/ml of azithromycin after 6 passages by Etest method
Pseudomonas aeruginosa [20] = test: Antimicrobial activity against Pseudomonas aeruginosa PAO1 A biofilm harboring deletion mutation at nucleotide 231-244 in nfxB gene selected at 1 ug/ml of azithromycin after 4 passages by Etest method
Pseudomonas aeruginosa [21] = test: Antimicrobial activity against mucA::lox, mutS::lox-deficient Pseudomonas aeruginosa PAOMSAA biofilm harboring nfxB T86C mutant gene selected at 4 ug/ml of azithromycin after 2 passages by Etest method
Pseudomonas aeruginosa [22] = test: Antimicrobial activity against mutS::lox-deficient Pseudomonas aeruginosa PAOMSB biofilm harboring nfxB T562C mutant gene selected at 4 ug/ml of azithromycin after 4 passages by Etest method
Pseudomonas aeruginosa [23] = test: Antimicrobial activity against nfxB gene-deficient Pseudomonas aeruginosa PAONB biofilm by Etest method
Pseudomonas aeruginosa [24] = test: Antimicrobial activity against mucA::lox-deficient Pseudomonas aeruginosa PAOMAA biofilm harboring nfxB C25T mutant gene selected at 1 ug/ml of azithromycin after 2 passages by Etest method
Pseudomonas aeruginosa [25] = test: Antimicrobial activity against Pseudomonas aeruginosa PAO1 A biofilm harboring nfxB T248C mutant gene selected at 4 ug/ml of azithromycin after 4 passages by Etest method
Pseudomonas aeruginosa [26] = test: Antimicrobial activity against mutS::lox-deficient Pseudomonas aeruginosa PAOMSB biofilm harboring nfxB T41C mutant gene selected at 4 ug/ml of azithromycin after 3 passages by Etest method
Pseudomonas aeruginosa [27] = test: Antimicrobial activity against mexD::lox-deficient Pseudomonas aeruginosa PAOMxD biofilm by Etest method
Pseudomonas aeruginosa [28] = test: Antimicrobial activity against mutS::lox-deficient Pseudomonas aeruginosa PAOMSA biofilm harboring nfxB T86C mutant gene selected at 4 ug/ml of azithromycin after 4 passages by Etest method
Pseudomonas aeruginosa [29] = test: Antimicrobial activity against mucA::lox, mutS::lox-deficient Pseudomonas aeruginosa PAOMSA biofilm by Etest method
Pseudomonas aeruginosa [30] = test: Antimicrobial activity against mutS::lox-deficient Pseudomonas aeruginosa PAOMSA biofilm harboring nfxB T533C mutant gene selected at 4 ug/ml of azithromycin after 2 passages by Etest method
Pseudomonas aeruginosa [31] = test: Antimicrobial activity against mutS::lox-deficient Pseudomonas aeruginosa PAOMSA biofilm harboring nfxB T86C mutant gene selected at 4 ug/ml of azithromycin after 3 passages by Etest method
Pseudomonas aeruginosa [32] = test: Antimicrobial activity against mucA::lox, mutS::lox-deficient Pseudomonas aeruginosa PAOMSAA biofilm harboring nfxB C89T mutant gene selected at 0.5 ug/ml of azithromycin after 3 passages by Etest method
Pseudomonas aeruginosa [33] = test: Antimicrobial activity against mutS::lox-deficient Pseudomonas aeruginosa PAOMSB biofilm harboring nfxB T380C mutant gene selected at 0.5 ug/ml of azithromycin after 2 passages by Etest method

SMILES: NC[C@H]1O[C@H](O[C@H]2[C@H](O)[C@@H](O[C@H]3O[C@H](CO)[C@@H](O)[C@H](N)[C@H]3O)[C@H](N)C[C@@H]2N)[C@H](N)C[C@@H]1O [TOBRAMYCIN]
- MIC (Pseudomonas aeruginosa [1]): 1 µg/mL
- MIC (Pseudomonas aeruginosa [2]): 0.5 µg/mL
- MIC (Pseudomonas aeruginosa [3]): 0.38 µg/mL
- MIC (Pseudomonas aeruginosa [4]): 0.38 µg/mL
- MIC (Pseudomonas aeruginosa [5]): 1.5 µg/mL (≈ 3.21 µM)
- MIC (Pseudomonas aeruginosa [6]): 0.19 µg/mL
- MIC (Pseudomonas aeruginosa [7]): 0.5 µg/mL (≈ 1.07 µM)
- MIC (Pseudomonas aeruginosa [8]): 1.5 µg/mL
- MIC (Pseudomonas aeruginosa [9]): 1 µg/mL
- MIC (Pseudomonas aeruginosa [10]): 1 µg/mL
- MIC (Pseudomonas aeruginosa [11]): 1 µg/mL
- MIC (Pseudomonas aeruginosa [12]): 1.5 µg/mL (≈ 3.21 µM)
- MIC (Pseudomonas aeruginosa [13]): 0.5 µg/mL
- MIC (Pseudomonas aeruginosa [14]): 1 µg/mL
- MIC (Pseudomonas aeruginosa [15]): 1 µg/mL
- MIC (Pseudomonas aeruginosa [16]): 1.5 µg/mL
- MIC (Pseudomonas aeruginosa [17]): 2 µg/mL (≈ 4.28 µM)
- MIC (Pseudomonas aeruginosa [18]): 1.5 µg/mL (≈ 3.21 µM)
- MIC (Pseudomonas aeruginosa [19]): 0.5 µg/mL
- MIC (Pseudomonas aeruginosa [20]): 0.38 µg/mL
- MIC (Pseudomonas aeruginosa [21]): 0.5 µg/mL
- MIC (Pseudomonas aeruginosa [22]): 1.5 µg/mL
- MIC (Pseudomonas aeruginosa [23]): 0.25 µg/mL (≈ 0.535 µM)
- MIC (Pseudomonas aeruginosa [24]): 0.38 µg/mL
- MIC (Pseudomonas aeruginosa [25]): 0.25 µg/mL
- MIC (Pseudomonas aeruginosa [26]): 1 µg/mL
- MIC (Pseudomonas aeruginosa [27]): 1.5 µg/mL (≈ 3.21 µM)
- MIC (Pseudomonas aeruginosa [28]): 0.5 µg/mL
- MIC (Pseudomonas aeruginosa [29]): 1.5 µg/mL (≈ 3.21 µM)
- MIC (Pseudomonas aeruginosa [30]): 0.75 µg/mL
- MIC (Pseudomonas aeruginosa [31]): 0.5 µg/mL
- MIC (Pseudomonas aeruginosa [32]): 0.75 µg/mL
- MIC (Pseudomonas aeruginosa [33]): 1 µg/mL

SMILES: O=C(O)c1cn(C2CC2)c2cc(N3CCNCC3)c(F)cc2c1=O [CIPROFLOXACIN]
- MIC (Pseudomonas aeruginosa [2]): 1.5 µg/mL
- MIC (Pseudomonas aeruginosa [3]): 3 µg/mL
- MIC (Pseudomonas aeruginosa [4]): 3 µg/mL
- MIC (Pseudomonas aeruginosa [6]): 3 µg/mL
- MIC (Pseudomonas aeruginosa [7]): 1 µg/mL (≈ 3.02 µM)
- MIC (Pseudomonas aeruginosa [8]): 3 µg/mL
- MIC (Pseudomonas aeruginosa [13]): 3 µg/mL
- MIC (Pseudomonas aeruginosa [14]): 4 µg/mL
- MIC (Pseudomonas aeruginosa [15]): 1 µg/mL
- MIC (Pseudomonas aeruginosa [17]): 0.094 µg/mL (≈ 0.284 µM)
- MIC (Pseudomonas aeruginosa [19]): 3 µg/mL
- MIC (Pseudomonas aeruginosa [20]): 3 µg/mL
- MIC (Pseudomonas aeruginosa [21]): 3 µg/mL
- MIC (Pseudomonas aeruginosa [22]): 0.75 µg/mL
- MIC (Pseudomonas aeruginosa [23]): 1 µg/mL (≈ 3.02 µM)
- MIC (Pseudomonas aeruginosa [28]): 1 µg/mL
- MIC (Pseudomonas aeruginosa [32]): 3 µg/mL
- MIC (Pseudomonas aeruginosa [33]): 4 µg/mL

SMILES: C[C@H]1[C@H](NC(=O)/C(=N\OC(C)(C)C(=O)O)c2csc(N)n2)C(=O)N1S(=O)(=O)O [AZTREONAM]
- MIC (Pseudomonas aeruginosa [1]): 1 µg/mL
- MIC (Pseudomonas aeruginosa [2]): 0.75 µg/mL
- MIC (Pseudomonas aeruginosa [3]): 0.5 µg/mL
- MIC (Pseudomonas aeruginosa [4]): 0.75 µg/mL
- MIC (Pseudomonas aeruginosa [5]): 2 µg/mL (≈ 4.59 µM)
- MIC (Pseudomonas aeruginosa [6]): 0.75 µg/mL
- MIC (Pseudomonas aeruginosa [7]): 1 µg/mL (≈ 2.3 µM)
- MIC (Pseudomonas aeruginosa [8]): 2 µg/mL
- MIC (Pseudomonas aeruginosa [9]): 2 µg/mL
- MIC (Pseudomonas aeruginosa [10]): 1 µg/mL
- MIC (Pseudomonas aeruginosa [11]): 2 µg/mL
- MIC (Pseudomonas aeruginosa [12]): 2 µg/mL (≈ 4.59 µM)
- MIC (Pseudomonas aeruginosa [13]): 1 µg/mL
- MIC (Pseudomonas aeruginosa [14]): 2 µg/mL
- MIC (Pseudomonas aeruginosa [15]): 0.75 µg/mL
- MIC (Pseudomonas aeruginosa [16]): 2 µg/mL
- MIC (Pseudomonas aeruginosa [17]): 2 µg/mL (≈ 4.59 µM)
- MIC (Pseudomonas aeruginosa [18]): 2 µg/mL (≈ 4.59 µM)
- MIC (Pseudomonas aeruginosa [19]): 1 µg/mL
- MIC (Pseudomonas aeruginosa [20]): 0.5 µg/mL
- MIC (Pseudomonas aeruginosa [21]): 1 µg/mL
- MIC (Pseudomonas aeruginosa [22]): 1.5 µg/mL
- MIC (Pseudomonas aeruginosa [23]): 0.5 µg/mL (≈ 1.15 µM)
- MIC (Pseudomonas aeruginosa [24]): 0.75 µg/mL
- MIC (Pseudomonas aeruginosa [25]): 0.75 µg/mL
- MIC (Pseudomonas aeruginosa [26]): 2 µg/mL
- MIC (Pseudomonas aeruginosa [27]): 2 µg/mL (≈ 4.59 µM)
- MIC (Pseudomonas aeruginosa [28]): 0.75 µg/mL
- MIC (Pseudomonas aeruginosa [29]): 2 µg/mL (≈ 4.59 µM)
- MIC (Pseudomonas aeruginosa [30]): 0.75 µg/mL
- MIC (Pseudomonas aeruginosa [31]): 1 µg/mL
- MIC (Pseudomonas aeruginosa [32]): 1 µg/mL
- MIC (Pseudomonas aeruginosa [33]): 0.75 µg/mL

SMILES: CC(C)(O/N=C(\C(=O)N[C@@H]1C(=O)N2C(C(=O)[O-])=C(C[n+]3ccccc3)CS[C@H]12)c1csc(N)n1)C(=O)O [CEFTAZIDIME]
- MIC (Pseudomonas aeruginosa [1]): 2 µg/mL
- MIC (Pseudomonas aeruginosa [2]): 1.5 µg/mL
- MIC (Pseudomonas aeruginosa [3]): 0.5 µg/mL
- MIC (Pseudomonas aeruginosa [4]): 1 µg/mL
- MIC (Pseudomonas aeruginosa [5]): 1.5 µg/mL (≈ 2.74 µM)
- MIC (Pseudomonas aeruginosa [6]): 1.5 µg/mL
- MIC (Pseudomonas aeruginosa [7]): 1.5 µg/mL (≈ 2.74 µM)
- MIC (Pseudomonas aeruginosa [8]): 2 µg/mL
- MIC (Pseudomonas aeruginosa [9]): 2 µg/mL
- MIC (Pseudomonas aeruginosa [10]): 1.5 µg/mL
- MIC (Pseudomonas aeruginosa [11]): 2 µg/mL
- MIC (Pseudomonas aeruginosa [12]): 1.5 µg/mL (≈ 2.74 µM)
- MIC (Pseudomonas aeruginosa [13]): 2 µg/mL
- MIC (Pseudomonas aeruginosa [14]): 1 µg/mL
- MIC (Pseudomonas aeruginosa [15]): 1.5 µg/mL
- MIC (Pseudomonas aeruginosa [16]): 2 µg/mL
- MIC (Pseudomonas aeruginosa [17]): 1.5 µg/mL (≈ 2.74 µM)
- MIC (Pseudomonas aeruginosa [18]): 1.5 µg/mL (≈ 2.74 µM)
- MIC (Pseudomonas aeruginosa [19]): 1.5 µg/mL
- MIC (Pseudomonas aeruginosa [20]): 1 µg/mL
- MIC (Pseudomonas aeruginosa [21]): 1.5 µg/mL
- MIC (Pseudomonas aeruginosa [22]): 1.5 µg/mL
- MIC (Pseudomonas aeruginosa [23]): 1.5 µg/mL (≈ 2.74 µM)
- MIC (Pseudomonas aeruginosa [24]): 1 µg/mL
- MIC (Pseudomonas aeruginosa [25]): 1.5 µg/mL
- MIC (Pseudomonas aeruginosa [26]): 2 µg/mL
- MIC (Pseudomonas aeruginosa [27]): 1.5 µg/mL (≈ 2.74 µM)
- MIC (Pseudomonas aeruginosa [28]): 1.5 µg/mL
- MIC (Pseudomonas aeruginosa [29]): 1.5 µg/mL (≈ 2.74 µM)
- MIC (Pseudomonas aeruginosa [30]): 1.5 µg/mL
- MIC (Pseudomonas aeruginosa [31]): 2 µg/mL
- MIC (Pseudomonas aeruginosa [32]): 1.5 µg/mL
- MIC (Pseudomonas aeruginosa [33]): 1 µg/mL

From ChEMBL document CHEMBL1671651, “Azithromycin in Pseudomonas aeruginosa biofilms: bactericidal activity and selection of nfxB mutants” (2009)
